Experimental data: PubChem BioAssay (NCI)
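Five concentrations, 48 hours, 96-well plates. The concentration for full growth arrest is given as TGI.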

Columns and labels:
Test in all cases: NCI-60 cell line screen, 48 h
EKVX NSCLC = tested on: EKVX NSCLC
MDA-MB-435 = tested on: MDA-MB-435
SF-539 CNS = tested on: SF-539 CNS
M14 melanoma = tested on: M14 melanoma
HOP-92 NSCLC = tested on: HOP-92 NSCLC
786-0 renal = tested on: 786-0 renal
KM12 colon = tested on: KM12 colon
MDA-MB-231 breast = tested on: MDA-MB-231 breast
RPMI-8226 leukemia = tested on: RPMI-8226 leukemia
OVCAR-4 ovarian = tested on: OVCAR-4 ovarian
HCT-15 colon = tested on: HCT-15 colon
SK-OV-3 ovarian = tested on: SK-OV-3 ovarian
CCRF-CEM leukemia = tested on: CCRF-CEM leukemia
SNB-19 CNS = tested on: SNB-19 CNS
UO-31 renal = tested on: UO-31 renal
SW-620 colon = tested on: SW-620 colon
COLO 205 colon = tested on: COLO 205 colon
HL-60(TB) leukemia = tested on: HL-60(TB) leukemia
SF-295 CNS = tested on: SF-295 CNS
A549 NSCLC = tested on: A549 NSCLC

SMILES	TGI (EKVX NSCLC) [µM]	TGI (MDA-MB-435) [µM]	TGI (SF-539 CNS) [µM]	TGI (M14 melanoma) [µM]	TGI (HOP-92 NSCLC) [µM]	TGI (786-0 renal) [µM]	TGI (KM12 colon) [µM]	TGI (MDA-MB-231 breast) [µM]	TGI (RPMI-8226 leukemia) [µM]	TGI (OVCAR-4 ovarian) [µM]	TGI (HCT-15 colon) [µM]	TGI (SK-OV-3 ovarian) [µM]	TGI (CCRF-CEM leukemia) [µM]	TGI (SNB-19 CNS) [µM]	TGI (UO-31 renal) [µM]	TGI (SW-620 colon) [µM]	TGI (COLO 205 colon) [µM]	TGI (HL-60(TB) leukemia) [µM]	TGI (SF-295 CNS) [µM]	TGI (A549 NSCLC) [µM]
CN(C)CCNC1=CC(=O)c2c(O)ccc(O)c2C1=O	25.6	3.33	20.6	12.4	27.8	15.4	21.2	25	> 68.2	15.7	> 40.8	83.1	11.3	31.6	17	10.1	3.63	6.53	24.3	27.3
O=C(CN1CCOCC1)CC(O)(C(F)(F)F)C(F)(F)F	> 100	> 100	> 100	> 100	97.2	> 100	> 100	> 100	> 100	> 100	> 100	> 100	> 100	> 100	> 100	> 100	> 100	> 100	> 100	> 100
N#C[C@@]12CCCC(=O)[C@@H]1[C@H]1CCC[C@H]12	28.6	33.5	59.9	30.2	38	29.4	27.4	31.2	32.3	58.6	38.2	32.8	57.4	42.4	30	45.2	45.7	34.1	44.6	37
CN[C@@H](C)[C@H](OP(=O)(O)OC1[C@@H](O)[C@H](O)C(O)[C@H](O)[C@@H]1O)c1ccccc1 (stereo not given in full)	> 100	> 100	> 100	> 100	> 100	> 100	> 100	> 100	> 100	> 100	> 100	> 100	> 100	> 100	> 100	> 100	> 100	> 100	> 100	> 100
Cc1ccc(Nc2nc(=O)[nH]c(=O)[nH]2)cc1N=[N+]=[N-]	> 100	> 100	> 100	> 100	> 100	> 100	> 100	> 100	> 100	> 100	> 100	> 100	> 100	> 100	> 100	> 100	> 100	> 100	> 100	> 100
Cc1ccc2cccc3c2c1CC1(C3=O)S(=O)(=O)OCCOS1(=O)=O	> 100	> 100	> 100	> 100	> 100	> 100	> 100	> 100	> 100	> 100	> 100	> 100	> 100	> 100	> 100	> 100	> 100	> 100	> 100	> 100
O=C(CCc1ccccc1CO)NCCc1ccccc1	> 100	> 100	> 100	> 100	> 100	> 100	> 100	> 100	> 100	> 100	> 100	> 100	> 100	> 100	> 100	> 100	> 100	> 100	> 100	> 100
CC(C)CC1[C@@H](OCc2ccccc2)COS(=O)(=O)N1Cc1ccccc1 (stereo not given in full)	> 100	> 100	> 100	> 100	> 100	> 100	> 100	> 100	> 100	> 100	> 100	> 100	> 100	> 100	97.6	> 100	> 100	> 100	> 100	> 100
CC1=C(C(=O)Nc2ccccc2)C(c2ccc(C)o2)C(C#N)=C(SCc2ccccc2)N1 (stereo not given)	> 100	24.6	> 100	> 100	> 66.4	> 100	> 100	> 100	> 100	> 100	> 100	> 100	> 100	> 100	> 100	> 100	> 100	> 100	> 100	> 100
COc1ccc(-n2c3c(c4c(CN(C)C)c(O)ccc42)C(=O)c2ccccc2C3=O)cc1	25.4	30.9	3.89	11.8	44.8	4.52	10.7	7.67	4.88	15.9	10.5	8.01	8.35	> 100	5.11	7.53	20.7	19.5	33.2	37.5
COc1cc(/C=C/C(=O)N[C@@H]2C(=O)N3[C@@H]2SC(C)(C)[C@@H]3C(=O)O)cc(OC)c1OC	> 100	> 100	> 100	> 100	> 100	> 100	> 100	> 100	> 100	> 100	> 100	> 100	> 100	> 100	> 100	> 100	> 100	> 100	> 100	> 100
COC(=O)c1ccc(CCc2cc(O)c(Br)cc2O)cc1	31.3	22.6	20.7	29	28.2	27.5	> 55.3	29	92.2	23.2	26.1	> 62.5	5.78	33.1	18.1	30.5	27.3	4.65	28	50.5
CCOC(=O)COc1c(OC)cc(C2C3=C(COC3=O)Oc3cc4c(cc32)OCO4)cc1OC (stereo not given)	> 100	0.89	43	> 100	> 45.1	15.5	> 100	> 100	0.954	24.9	> 100	> 57.5	0.965	> 100	> 100	> 65.9	4.88	0.539	> 26.3	> 100
COc1cc(C(=O)Nc2c3ccccc3nc3ccccc23)cc(OC)c1OC	> 100	> 100	> 100	> 100	> 100	> 100	> 100	> 100	> 100	> 100	> 100	> 100	> 100	> 100	> 100	> 100	> 100	5.58	> 100	> 100
O=C1OC[C@@H]2Cc3c([nH]c4ccccc34)[C@@H](c3cc(O)c(O)c(O)c3)N12	> 100	25.9	37.9	36.7	> 100	56.1	> 100	42.3	65.8	26.1	> 100	> 100	54.3	69.1	> 100	53.4	42.6	15	34	> 100
NCCCc1c(-c2ccccc2)nc(N)[nH]c1=O	> 100	> 100	> 100	> 100	> 100	> 100	> 100	> 100	> 100	> 100	> 100	> 100	> 100	> 100	> 100	> 100	> 100	> 100	> 100	> 100
COC(OC)(c1ccccc1)C(I)I	16.9	18	17.6	15.2	26.7	21.5	40.1	36.4	> 100	27.4	18.5	16.7	22.7	> 71	29.8	> 37.1	24.2	20.4	> 52.7	43.6
CC1(C)N=C(/C=N/O)C(C)(C)N1O	> 100	> 100	> 100	> 100	> 100	> 100	> 100	> 100	> 100	> 100	> 100	> 100	> 100	> 100	> 100	> 100	> 100	> 100	> 100	> 100
O[C@H]1[C@H](O)[C@H](O)CN2CCC[C@@H](O)[C@H]12	> 100	> 100	> 100	> 100	> 100	> 100	> 100	> 100	> 100	> 100	> 100	> 100	> 100	> 100	> 100	> 100	> 100	> 100	> 100	> 100
CC1(C)C(=O)C2(OS(=O)(=O)C(F)(F)F)CCC1C2 (stereo not given)	> 100	> 100	> 100	> 100	> 100	> 100	> 100	> 100	> 100	> 100	> 100	> 100	> 100	> 100	> 100	> 100	> 100	> 100	> 100	> 100
COC(=O)[C@H](Cc1ccccc1)NP(=O)(O)OCC1OC(n2cc(C)c(=O)[nH]c2=O)CC1N=[N+]=[N-] (stereo not given in full)	> 100	> 100	> 100	> 100	> 100	> 100	> 100	> 100	> 100	> 100	> 100	> 100	> 100	> 100	> 100	> 100	> 100	> 100	> 100	> 100
COc1cc2c(cc1OC)C(Cc1ccccc1CCCl)=NCC2	> 100	> 100	48.6	> 100	> 100	> 100	> 100	> 100	98.1	> 100	> 100	> 100	> 100	> 100	> 100	> 100	> 100	97.2	> 100	> 100
CSc1ccc(/C=C2\N=C(c3ccccc3)N(c3nc4c(Cl)cc(Cl)cc4s3)C2=O)cc1	49.9	43.2	> 100	62.9	> 100	> 100	88.6	62.5	> 100	58.4	> 100	84.9	43.3	> 100	47.9	> 100	> 100	69.7	79.7	53.4
